Reference: ChEMBL document CHEMBL1201862, “PubChem BioAssay data set” (2004)
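1) Cells in 96-well plates. 2) Compound, 48 h, 5 concentrations. 3) Linear interpolation between surrounding doses. 4) Unreached endpoint = highest concentration. GI50: concentration for 50% inhibition of growth.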 Active and inactive are the calls of the source. No stated cut-off is given here; in the data, active = GI50 up to about 1.1 µM and inactive = higher.

Tests used:
Assay in all cases: NCI-60 cell line screen, 48 h
786-0 = test system: 786-0
A549 = test system: A549
HCC 2998 = test system: HCC 2998
HL-60 = test system: HL-60
HT-29 = test system: HT-29
K562 = test system: K562
NCI-H460 = test system: NCI-H460
NCI-H522 = test system: NCI-H522
OVCAR-4 = test system: OVCAR-4
OVCAR-5 = test system: OVCAR-5
RPMI-8226 = test system: RPMI-8226
SF-295 = test system: SF-295
SK-MEL-28 = test system: SK-MEL-28
SNB-19 = test system: SNB-19
UO-31 = test system: UO-31
OVCAR-3 = test system: OVCAR-3

| SMILES | GI50 (786-0) | GI50 (A549) | GI50 (HCC 2998) | GI50 (HL-60) | GI50 (HT-29) | GI50 (K562) | GI50 (NCI-H460) | GI50 (NCI-H522) | GI50 (OVCAR-4) | GI50 (OVCAR-5) | GI50 (RPMI-8226) | GI50 (SF-295) | GI50 (SK-MEL-28) | GI50 (SNB-19) | GI50 (UO-31) | GI50 (OVCAR-3) |
| --- | --- | --- | --- | --- | --- | --- | --- | --- | --- | --- | --- | --- | --- | --- | --- | --- |
| CCN(CC)c1ccc(C(=C2C=CC(=[N+](CC)CC)C=C2)c2ccccc2)cc1 | 0.0352 µM (active) | 0.0348 µM (active) | 0.0351 µM (active) | < 0.01 µM (active) | < 0.01 µM (active) | 0.0213 µM (active) | 0.0231 µM (active) | 0.0177 µM (active) | 0.0353 µM (active) | 0.134 µM (active) | < 0.01 µM (active) | 0.0248 µM (active) | 0.0537 µM (active) | 0.043 µM (active) | 0.0366 µM (active) | – |
| c1ccc2c3nc(C4CCCC4)nc-3c(NC3CCCC3)[nH]c2c1 | 8.07 µM (inactive) | 21 µM (inactive) | 6.76 µM (inactive) | 2.3 µM (inactive) | 4.6 µM (inactive) | 7.83 µM (inactive) | 8.04 µM (inactive) | 18.4 µM (inactive) | 14.4 µM (inactive) | 22.5 µM (inactive) | 21.2 µM (inactive) | 16.8 µM (inactive) | 13 µM (inactive) | 45.1 µM (inactive) | 21.6 µM (inactive) | 12.5 µM (inactive) |
| CCOC(=O)/N=c1\ss/c(=N\C(=S)N(C)C)n1-c1ccccc1 | 14.6 µM (inactive) | 1.11 µM (active) | > 10 µM (inactive) | > 10 µM (inactive) | 3.17 µM (inactive) | 19 µM (inactive) | 2.7 µM (inactive) | 0.235 µM (active) | 2.16 µM (inactive) | > 100 µM (inactive) | 7.48 µM (inactive) | 29.7 µM (inactive) | 1.82 µM (inactive) | 47.2 µM (inactive) | > 10 µM (inactive) | 0.394 µM (active) |
| O=P(c1ccccc1)(c1ccccc1)C1CC=C2CCCCCC2C1 (centres undefined) | 22.6 µM (inactive) | > 10 µM (inactive) | – | 27.2 µM (inactive) | 37.2 µM (inactive) | 28.3 µM (inactive) | 32.7 µM (inactive) | 17.2 µM (inactive) | 26.2 µM (inactive) | 23.2 µM (inactive) | 16.1 µM (inactive) | 41.3 µM (inactive) | > 10 µM (inactive) | 27.6 µM (inactive) | 21.8 µM (inactive) | 23.8 µM (inactive) |
| O=c1c2cc(Br)ccc2[nH]c(=S)n1-c1ccc(Br)cc1 | 40.6 µM (inactive) | > 100 µM (inactive) | > 100 µM (inactive) | > 100 µM (inactive) | > 100 µM (inactive) | > 100 µM (inactive) | 82.8 µM (inactive) | > 100 µM (inactive) | 76.4 µM (inactive) | – | > 100 µM (inactive) | 45.5 µM (inactive) | > 100 µM (inactive) | 47.9 µM (inactive) | > 100 µM (inactive) | 52.4 µM (inactive) |
| O=C(CCc1nnc(S)[nH]1)NC12CC3CC(CC(C3)C1)C2 | > 100 µM (inactive) | > 100 µM (inactive) | > 100 µM (inactive) | > 100 µM (inactive) | > 100 µM (inactive) | > 100 µM (inactive) | > 100 µM (inactive) | – | > 100 µM (inactive) | > 100 µM (inactive) | – | > 100 µM (inactive) | > 100 µM (inactive) | > 100 µM (inactive) | > 100 µM (inactive) | > 100 µM (inactive) |
| O=CCCCC(Sc1ccccc1)Sc1ccccc1 | 19.1 µM (inactive) | 29.6 µM (inactive) | 31 µM (inactive) | 6.1 µM (inactive) | – | 14.4 µM (inactive) | > 10 µM (inactive) | > 100 µM (inactive) | 21.7 µM (inactive) | – | 16 µM (inactive) | 18.1 µM (inactive) | 15.8 µM (inactive) | 45.4 µM (inactive) | 14.7 µM (inactive) | 26.2 µM (inactive) |
| COC(=O)C(=O)C(C#N)c1ccc(CC#N)cc1 (centres undefined) | > 100 µM (inactive) | > 100 µM (inactive) | – | > 100 µM (inactive) | > 100 µM (inactive) | > 100 µM (inactive) | – | > 100 µM (inactive) | – | – | > 100 µM (inactive) | > 100 µM (inactive) | > 100 µM (inactive) | > 100 µM (inactive) | > 100 µM (inactive) | > 100 µM (inactive) |
| CC1(C)OC(=O)C(=C2CCC(C(=O)Nc3cccc(C(F)(F)F)c3)N2)C(=O)O1 (centres undefined) | > 100 µM (inactive) | > 100 µM (inactive) | 43.7 µM (inactive) | 67.8 µM (inactive) | 75.7 µM (inactive) | 33.4 µM (inactive) | 62.5 µM (inactive) | 39.8 µM (inactive) | 61.4 µM (inactive) | > 100 µM (inactive) | 51.2 µM (inactive) | 75.5 µM (inactive) | 97.7 µM (inactive) | 41.2 µM (inactive) | > 100 µM (inactive) | 82 µM (inactive) |
| O=C[C@]12CC=C3OC4OC5(CCCCC5)OC4[C@H]3[C@H]1C(=O)C=CC2=O (some centres undefined) | 9.84 µM (inactive) | 11.6 µM (inactive) | 32.7 µM (inactive) | 0.406 µM (active) | 40.2 µM (inactive) | > 10 µM (inactive) | 23.9 µM (inactive) | 5.9 µM (inactive) | 16.7 µM (inactive) | 53.3 µM (inactive) | – | 34.6 µM (inactive) | 26.7 µM (inactive) | 28.4 µM (inactive) | 12.1 µM (inactive) | – |
| O=[N+]([O-])c1cccc(C2=NN(c3ccccc3)C[N+](c3ccc(Br)cc3)=N2)c1 | > 100 µM (inactive) | > 100 µM (inactive) | 70.8 µM (inactive) | – | 47.4 µM (inactive) | 50.2 µM (inactive) | > 100 µM (inactive) | 77.1 µM (inactive) | > 100 µM (inactive) | > 100 µM (inactive) | 82 µM (inactive) | 64.9 µM (inactive) | > 100 µM (inactive) | > 100 µM (inactive) | 96.4 µM (inactive) | – |
| CCCC/C=C/C=C/C=C/CCCCCCCC(=O)OCC(COC(=O)CCCCCCC/C=C/C1C=CC(CCCC)C(C(=O)O)C1C(=O)O)OC(=O)CCCCCCC/C=C/C=C/C=C/CCCC.OCCNCO (centres undefined) | 13.7 µM (inactive) | 18.8 µM (inactive) | 23.4 µM (inactive) | 21.9 µM (inactive) | 16.7 µM (inactive) | 19.5 µM (inactive) | 33.8 µM (inactive) | – | 17 µM (inactive) | 20.2 µM (inactive) | 3.78 µM (inactive) | 17.8 µM (inactive) | 18.3 µM (inactive) | 20.2 µM (inactive) | 20 µM (inactive) | 17.9 µM (inactive) |
| COc1ccc(/C=C2\SC(c3ccc(OC)cc3)N(NC(=O)Cc3ccccc3)C2=O)cc1 (centres undefined) | > 100 µM (inactive) | > 100 µM (inactive) | – | 94.8 µM (inactive) | > 100 µM (inactive) | 88.1 µM (inactive) | > 100 µM (inactive) | > 100 µM (inactive) | > 100 µM (inactive) | > 100 µM (inactive) | 76.4 µM (inactive) | > 100 µM (inactive) | > 100 µM (inactive) | – | > 100 µM (inactive) | – |
| COc1ccc(/C=N/N=C(\N)NO)cc1F | 13.7 µM (inactive) | 14.3 µM (inactive) | 11.4 µM (inactive) | 27.4 µM (inactive) | 12.9 µM (inactive) | 8 µM (inactive) | 11.9 µM (inactive) | 22.1 µM (inactive) | 7.45 µM (inactive) | 13.9 µM (inactive) | 28.4 µM (inactive) | 23 µM (inactive) | > 100 µM (inactive) | 37.6 µM (inactive) | 14 µM (inactive) | 53 µM (inactive) |
| O=C(CC1=Nc2nnc(-c3nnc4n3C(=O)C(CC(=O)c3cccnc3)=N4)n2C1=O)c1cccnc1 | > 100 µM (inactive) | > 100 µM (inactive) | > 100 µM (inactive) | > 100 µM (inactive) | > 100 µM (inactive) | > 100 µM (inactive) | > 100 µM (inactive) | > 100 µM (inactive) | > 100 µM (inactive) | > 100 µM (inactive) | > 100 µM (inactive) | > 100 µM (inactive) | > 100 µM (inactive) | > 100 µM (inactive) | > 100 µM (inactive) | > 100 µM (inactive) |
| Cc1nn2c(nc1=O)sc1ccc3ccccc3c12 | > 100 µM (inactive) | > 100 µM (inactive) | > 100 µM (inactive) | > 100 µM (inactive) | > 100 µM (inactive) | > 100 µM (inactive) | > 100 µM (inactive) | – | > 100 µM (inactive) | > 100 µM (inactive) | – | > 100 µM (inactive) | > 100 µM (inactive) | > 100 µM (inactive) | > 100 µM (inactive) | > 100 µM (inactive) |
| CS(=O)(=O)N(CCC#N)c1ccc(/C=C2\N=C(c3ccccc3Cl)OC2=O)cc1 | > 100 µM (inactive) | > 100 µM (inactive) | > 100 µM (inactive) | > 100 µM (inactive) | > 100 µM (inactive) | > 100 µM (inactive) | > 100 µM (inactive) | > 100 µM (inactive) | – | > 100 µM (inactive) | > 100 µM (inactive) | > 100 µM (inactive) | > 100 µM (inactive) | > 100 µM (inactive) | > 100 µM (inactive) | > 100 µM (inactive) |
| O=C1/C(=C/c2ccccc2Cl)COc2ccccc21 | 15.2 µM (inactive) | 22.6 µM (inactive) | 20.9 µM (inactive) | 17.6 µM (inactive) | 19 µM (inactive) | 3.93 µM (inactive) | 20.5 µM (inactive) | 16.6 µM (inactive) | – | 17.8 µM (inactive) | 3.53 µM (inactive) | 19.1 µM (inactive) | 16.3 µM (inactive) | – | 15.1 µM (inactive) | 18.2 µM (inactive) |
